Source: PMC7501296, “Rapid and direct control of target protein levels with VHL-recruiting dTAG molecules” (Nature Communications, 2020)
Values joined by “and” are separate entries in the source; they are usually repeats but may differ in a detail not shown here. Equal values may be shown once.

Assays:
[1] = system: PATU-8902 LACZ-FKBP12^F36V clone; assay: Quantitative MS proteomics, PATU-8902 LACZ-FKBP12F36V clone; format: cell-based, Homo sapiens; conditions: for TMT intensity per TMT channel: PATU-8902 LACZ-FKBP12F36V samples, biological replicates
Protocol: Cell pellets from PATU-8902 and EWS502 cells were lysed using 8 M urea, 200 mM 4-(2-hydroxyethyl)-1-piperazinepropanesulfonic acid (EPPS) at pH 8.5 with protease inhibitors. Samples were further homogenized and DNA was sheered via sonication using a probe sonicator (20 × 0.5 s pulses; level 3). Total protein was determined using a BCA assay and stored at −80 °C until future use. A total of 100 µg of protein was aliquoted for each condition and TMT channel for further downstream processing. Protein extracts were reduced using 10 mM dithiothreitol (DTT) for 30 min at room temperature. Next, samples were alkylated with 20 mM iodoacetamide for 45 min in the dark at room temperature. To facilitate the removal of incompatible reagents, proteins were precipitated using chloroform methanol. Briefly, to 100 µL of each sample, 400 µL of methanol was added, followed by 100 µL of chloroform with thorough vortexing. Next, 300 µL of HPLC grade water was added and samples were vortexed thoroughly. Each sample was centrifuged at 14,000 × g for 5 min at room temperature. The upper aqueous layer was removed and the protein pellet was washed twice with methanol and centrifuged at 14,000 × g for 5 min at room temperature. Protein pellets were resolubilized in 200 mM EPPS buffer and digested overnight with Lys-C (1:100, enzyme:protein ratio) at room temperature. The next day, trypsin (1:100 ratio) was added and incubated at 37 °C for an additional 6 h in a ThermoMixer set to 1000 RPM.
To each digested sample, 30% anhydrous acetonitrile was added and 100 µg of peptides were labeled using 200 µg of TMT reagent (TMT1-TMT11). Following labeling, a 5% hydroxylamine solution was used to quench excess TMT reagent. To equalize protein loading, a ratio check was performed by pooling 2 µg of each TMT-labeled sample. Samples were pooled and desalted using in-house packed C18 StageTips and analyzed by LC-MS/MS. Normalization factors were calculated from this label check, samples were mixed 1:1 across all TMT channels and desalted using a 100 mg Sep-Pak solid phase extraction cartridge. Eluted pooled peptides were further fractionated with basic-pH reverse-phase (bRP) HPLC using an Agilent 300 extend C18 column and collected into a 96 deep-well plate. Samples were consolidated into 24 fractions, and 12 nonadjacent fraction were desalted using StageTips prior to analyses using LC-MS/MS[35]–[37].
All mass spectrometry data was acquired using an Orbitrap Fusion mass spectrometer in-line with a Proxeon NanoLC-1000 UHPLC system. Peptides were separated using an in-house 100 µm capillary column packed with 40 cm of Accucore 150 resin (2.6 µm, 150 Å) (Thermo Fisher Scientific) using a 180 min LC gradient per fraction. Eluted peptides were acquired using synchronous precursor selection (SPS-MS3) method for TMT quantification. Briefly, MS1 spectra were acquired at 120 K resolving power with a maximum of 50 ms in the Orbitrap. MS2 spectra were acquired by selecting the top ten most abundant features via collisional induced dissociation (CID) in the ion trap using an automatic gain control (AGC) of 15 K, quadrupole isolation width of 0.7 m/z and a maximum ion time of 100 ms. For MS3 acquisition, a synchronous precursor selection of ten fragment ions was acquired with an AGC of 150 K for 150 ms and a normalized collision energy of 55.
All acquired raw data were converted to mzXML using Raw File Reader (v3.0.77). Spectra were processed using Comet (2019.01.5)[39]–[41], search results were filtered using the LDA function MASS Package in R, and data were processed using an in-house informatics pipeline[42]–[44]. Custom code was not developed in this study. Briefly, peptide spectral libraries were first filtered to a peptide false discovery rate (FDR) of less than 1% using linear discriminant analysis employing a target decoy strategy. […]

[2] = system: PATU-8902 FKBP12^F36V-KRAS^G12V; KRAS^-/- clone; assay: Antiproliferation, PATU-8902 FKBP12F36V-KRASG12V; KRAS-/- clone, 3D-spheroid (CellTiter-Glo); format: cell-based; conditions: for DMSO-normalized antiproliferation: FKBP12F36V-KRASG12V, KRAS-/-, 3D-spheroid
Method in brief: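 Viability of cells grown as ultra-low adherent 3D-spheroids was determined with CellTiter-Glo (Promega). Luminescence readings were taken on an Envision 2104 plate reader (PerkinElmer) and a Fluostar Omega Reader (BMG Labtech), and the resulting data were processed in GraphPad PRISM v8 to assess effects on cell proliferation.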

[3] = 120 h, log10[compound] (M) -5.69897, single replicates
[4] = 120 h, log10[compound] (M) -6.19897, single replicates
[5] = 120 h, log10[compound] (M) -6.69897, single replicates
[6] = 120 h, log10[compound] (M) -7.19897, single replicates
[7] = 120 h, log10[compound] (M) -7.69897, single replicates
[8] = protein LACZ-FKBP12F36V, 500 nM, 4 h

For `CC[C@H](C(=O)N1CCCC[C@H]1C(=O)O[C@H](CCc1ccc(OC)c(OC)c1)c1ccccc1OCC(=O)NCCCCCCOc1cccc2c1C(=O)N(C1CCC(=O)NC1=O)C2=O)c1cc(OC)c(OC)c(OC)c1` (some centres unmarked) [dTAG-13], the “TMT intensity per TMT channel” value ([1]; protein CDK12) was 2762.51 and 2603.47, the “TMT intensity per TMT channel” value ([1]; protein INCENP) was 2716.3 and 2681.24 and the “TMT intensity per TMT channel” value ([1]; protein IRS2) was 372.779 and 399.852. For the same compound, the “TMT intensity per TMT channel” value ([1]; protein SLC12A2) was 1746.63 and 1711.2, the “TMT intensity per TMT channel” value ([1]; protein SLC15A4) was 223.037 and 230.942 and the DMSO-normalized antiproliferation ([2]; log10[compound] (M) -5.69897, replicate values) was 12.7187 and 7.467 and 16.3605 and 9.962. For the same compound, the DMSO-normalized antiproliferation ([2]; log10[compound] (M) -6.19897, replicate values) was 11.9335 and 12.0003 and 12.0114 and 13.9827, the DMSO-normalized antiproliferation ([2]; log10[compound] (M) -6.69897, replicate values) was 14.0106 and 15.4027 and 13.0027 and 15.9484 and the DMSO-normalized antiproliferation ([2]; log10[compound] (M) -7.19897, replicate values) was 14.0384 and 16.4385 and 16.9619 and 11.7776. For the same compound, the DMSO-normalized antiproliferation ([2]; log10[compound] (M) -7.69897, replicate values) was 14.9517 and 15.5419 and 18.3931 and 15.5976, the DMSO-normalized antiproliferation ([2]; log10[compound] (M) -8.19897, replicate values) was 24.6577 and 23.0874 and 23.2266 and 22.4971 and the DMSO-normalized antiproliferation ([2]; log10[compound] (M) -8.69897, replicate values) was 42.8837 and 45.8128 and 51.5651 and 55.5467. For the same compound, the DMSO-normalized antiproliferation ([2]; log10[compound] (M) -9.19897, replicate values) was 69.8747 and 70.4761 and 56.6493 and 74.3184, the DMSO-normalized antiproliferation ([2]; log10[compound] (M) -9.69897, replicate values) was 76.2117 and 76.4178 and 69.3902 and 68.6162 and the DMSO-normalized antiproliferation ([2]; log10[compound] (M) -10.199, replicate values) was 73.2492 and 74.079 and 68.7888 and 65.637.

In the case of `CCC(C(=O)N1CCCCC1C(=O)OC(CCc1ccc(OC)c(OC)c1)c1ccccc1OCC(=O)NCCCCCCC(=O)NC(C(=O)N1CC(O)CC1C(=O)NC(C)c1ccc(-c2scnc2C)cc1)C(C)(C)C)c1cc(OC)c(OC)c(OC)c1` (centres unmarked) [dTAG^V-1-NEG], the “TMT intensity per TMT channel” value ([1]; protein CDK12) is reported as 2630.52 and 3108.44 and 2718.26, the “log2 (Fold change) compared to DMSO” value ([1]; protein CRY1, 500 nM, 4 h) is reported as -0.9118 and the “TMT intensity per TMT channel” value ([1]; protein INCENP) is reported as 2713.73 and 2977.66 and 2766.34. The “TMT intensity per TMT channel” value ([1]; protein IRS2) was 358.215 and 458.696 and 391.289, the “log2 (Fold change) compared to DMSO” value ([1]; protein LITAF, 500 nM, 4 h) was -0.2196 and the “log2 (Fold change) compared to DMSO” value ([1]; protein MPRIP, 500 nM, 4 h) was -0.5841. For the same compound, the “log2 (Fold change) compared to DMSO” value ([1]; protein RIOX1, 500 nM, 4 h) was 0.1069, the “log2 (Fold change) compared to DMSO” value ([1]; protein SGTA, 500 nM, 4 h) was 0.1473 and the “TMT intensity per TMT channel” value ([1]; protein SLC12A2) was 1702.64 and 1563.99 and 1824.49. The “TMT intensity per TMT channel” value ([1]; protein SLC15A4) was 247.423 and 199.538 and 213.085, the DMSO-normalized antiproliferation [2, 3] was 37.3931 and 26.551 and 27.3028 and 28.0546 and the DMSO-normalized antiproliferation [2, 4] was 78.1886 and 92.1435 and 64.5511 and 70.1475. The DMSO-normalized antiproliferation [2, 5] was 103.503 and 85.567 and 103.938 and 98.1965, the DMSO-normalized antiproliferation [2, 6] was 124.063 and 123.712 and 110.481 and 131.998 and the DMSO-normalized antiproliferation [2, 7] was 94.7496 and 116.061 and 121.718 and 128.178. The DMSO-normalized antiproliferation ([2]; 120 h, log10[compound] (M) -8.19897, single replicates) was 119.268 and 103.119 and 108.576 and 125.767, the DMSO-normalized antiproliferation ([2]; 120 h, log10[compound] (M) -8.69897, single replicates) was 120.883 and 119.814 and 120.521 and 105.703 and the DMSO-normalized antiproliferation ([2]; 120 h, log10[compound] (M) -9.19897, single replicates) was 102.117 and 92.5221 and 111.366 and 98.8369. For the same compound, the DMSO-normalized antiproliferation ([2]; 120 h, log10[compound] (M) -9.69897, single replicates) was 88.1174 and 98.3023 and 99.984 and 124.954 and the DMSO-normalized antiproliferation ([2]; 120 h, log10[compound] (M) -10.199, single replicates) was 99.0429 and 90.8682 and 97.0717 and 101.855.

For `CC[C@H](C(=O)N1CCCC[C@H]1C(=O)O[C@H](CCc1ccc(OC)c(OC)c1)c1ccccc1OCC(=O)NCCCCCCC(=O)N[C@H](C(=O)N1C[C@H](O)C[C@H]1C(=O)N[C@@H](C)c1ccc(-c2scnc2C)cc1)C(C)(C)C)c1cc(OC)c(OC)c(OC)c1` [dTAG^V-1], the “Protein levels of VHL or VHL-regulated targets” value ([1]; 500 nM, 4 h) was “No significant changes”, the “log2 (Fold change) compared to DMSO” value ([1]; protein BCAR3, 500 nM, 4 h) was 0.1578 and the “TMT intensity per TMT channel” value ([1]; protein CDK12) was 2772.29 and 2668.65 and 2839.83. For the same compound, the “log2 (Fold change) compared to DMSO” value ([1]; protein CYBA, 500 nM, 4 h) was -0.2931, the “TMT intensity per TMT channel” value ([1]; protein INCENP) was 2143.95 and 2638.07 and 2856.47 and the “TMT intensity per TMT channel” value ([1]; protein IRS2) was 352.3 and 336.062 and 338.748. For the same compound, the “Fold change < -2” value [1, 8] was “+ (Fold change in which '+' refers to fold change < -2.)”, the “log2 (Fold change) compared to DMSO” value [1, 8] was -1.082 and the “log2 (Fold change) compared to DMSO” value ([1]; protein RAB18, 500 nM, 4 h) was -0.08378. The “log2 (Fold change) compared to DMSO” value ([1]; protein SEPTIN10, 500 nM, 4 h) was 0.1418, the “TMT intensity per TMT channel” value ([1]; protein SLC12A2) was 1789.71 and 1681.54 and 1827.76 and the “TMT intensity per TMT channel” value ([1]; protein SLC15A4) was 231.802 and 205.301 and 235.055. For the same compound, the “Cell proliferation upon FKBP12F36V-KRASG12V degradation” value ([2]; 2D-monolayer and 3D-spheroid cultures, 120 h) was “diminished cell proliferation”, the DMSO-normalized antiproliferation [2, 3] was 14.2222 and 15.5085 and 18.1313 and 19.3564 and the DMSO-normalized antiproliferation [2, 4] was 19.4455 and 15.9874 and 15.9651 and 15.7814. The DMSO-normalized antiproliferation [2, 5] was 16.8171 and 16.5888 and 12.056 and 15.8705, the DMSO-normalized antiproliferation [2, 6] was 11.0759 and 11.8444 and 17.6524 and 14.6677 and the DMSO-normalized antiproliferation [2, 7] was 20.7875 and 17.3072 and 22.4693 and 16.2436.
